The structures appear in SMILES notation.

The assay addresses T1, Central CCK Receptors (Mus musculus, UniProt P56481).
T1 construct: from tissue; host or cells: cerebral cortex membranes of male CFLP mice (30-40 g)
T1 sequence (P56481 1-453): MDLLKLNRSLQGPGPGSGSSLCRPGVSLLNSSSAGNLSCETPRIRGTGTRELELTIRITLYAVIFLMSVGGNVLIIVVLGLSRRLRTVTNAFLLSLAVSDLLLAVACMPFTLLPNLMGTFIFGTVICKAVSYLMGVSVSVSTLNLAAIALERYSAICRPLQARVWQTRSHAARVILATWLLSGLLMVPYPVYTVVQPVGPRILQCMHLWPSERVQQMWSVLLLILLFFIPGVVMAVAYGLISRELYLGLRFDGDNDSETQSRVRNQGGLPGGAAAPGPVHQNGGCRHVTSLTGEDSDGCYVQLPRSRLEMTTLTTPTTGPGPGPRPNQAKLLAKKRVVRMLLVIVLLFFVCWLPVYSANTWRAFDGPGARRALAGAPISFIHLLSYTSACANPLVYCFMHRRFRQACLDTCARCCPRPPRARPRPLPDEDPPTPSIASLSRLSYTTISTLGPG
Nature of the assay: Binding to central CCK receptors, displacement of tritiated pentagastrin from cerebral cortical membranes of male CFLP mice. Also noted: species or system mouse (male CFLP). The following applies: cerebral cortexes taken from male CFLP mice; 2 nM tritiated-pentagastrin. The protocol:
The biological activity of compounds of the present invention was evaluated employing an initial screening test which rapidly and accurately measured the binding of the tested compound to known CCK receptor sites. […] (See Hays et al, Neuropeptides 1:53-62, 1980; and Satuer et al, Science 208:1155-1156, 1980).
In this screening test, the cerebral cortices taken from male CFLP mice weighing between 30-40 g were dissected on ice, weighed, and homogenized in 10 volumes of 50 mM Tris-HCl buffer (pH 7.4 at 0°-4° C.). The resulting suspension was centrifuged, the supernate was discarded, and the pellet was washed by resuspension in Tris-HCl buffer followed by recentrifugation. The final pellet was resuspended in 20 volumes of […] Hepes buffer (pH 7.2 at 23° C.) containing 130 mM NaCl, […] KCl, […] MgCl2, […] EDTA, 5 mg/mL bovine albumin, and bacitracin (0.25 mg/mL).
In saturation studies, cerebral cortical membranes were incubated at 23° C. for 120 minutes in a final volume of 500 μL of Hepes incubation buffer (pH 7.2) together with […] tritiated-pentagastrin (Amersham International, England).
In the displacement experiments, membranes were incubated with a single concentration (2 nM) of ligand, together with increasing concentrations (10^-11 to […]) of competitive test compound. In each case, the nonspecific binding was defined as that persisting in the presence of the unlabeled octapeptide CCK26-33 (10^-6 M)
Following incubation, radioactivity bound to membranes was separated from that free in solution by rapid filtration through Whatman GF/B filters and washed three times with 4 mL of ice cold Tris-HCl buffer. Filters from samples incubated with tritiated-pentagastrin were placed in polyethylene vials with 4 mL of scintillation cocktail, and the radioactivity was estimated by liquid scintillation spectrometry (efficiency 47-52%).
Saturation curves for specific tritiated- pentagastrin binding to mouse cortical membranes were analyzed by the methods of Scatchard (Ann. New York Acad. Sci. 51:660-672, 1949, and Hill (J. Physiol. 40:IV-VIII, 1910), to provide estimates for the maximum number of binding sites (Bmax) and the equilibrium dissociation constant (Ka).
In displacement experiments, inhibition curves were analyzed by either logit-log plots or the iterative curve fitting computer program ALLFIT (DeLean, Munson and Redbard, 1978) to provide estimates of the IC50 and nH (apparent Hill coefficient) values).
The inhibition constant (Ki) of the test compound was then calculated according to the Cheng-Prusoff equation: [formula] where [L] is the concentration of radiolabel and Ka is the equilibrium dissociation constant.
Regarding `CC(=O)OC[C@H](Cc1ccccc1)NC[C@@](C)(Cc1c[nH]c2ccccc12)NC(=O)OC1C2CC3CC(C2)CC1C3` (relative stereo) [Example 7, [R-(R*,S*)]-β-[[2-(1H-indol-3-ylmethyl)-2-[[tricyclo-[3.3.1.1^3,7]dec-2-yloxvcarbonyl]amino]propyl]amino]-benzenepropanol acetate], the affinity corresponds to a Ki of 374 nM. `C[C@@](Cc1c[nH]c2ccccc12)(NC(=O)OC1C2CC3CC(C2)CC1C3)C(=O)NCCC(=O)N[C@H](CO)Cc1ccccc1` (relative stereo) [Example 24, Carbamic acid, [1-(1H-indol-3-ylmethyl)-2-[[3-[[1-hydroxymethyl)-2-iphenylethyl]amino]-3-oxopropyl]-amino]-1-methyl-2-oxoethyl]-, tricyclo[3.3.1.1^3,7]dec-2-ylester, [S-(R*,R*)]-] gave a Ki of 1100 nM.

`O=C(N[C@@H](CN[C@H](CO)Cc1ccccc1)Cc1c[nH]c2ccccc12)OC1C2CC3CC(C2)CC1C3` (stereo partly drawn) [Example 1, Tricyclo[3.3.1.1^3,7]dec-2-yl[S-(R)]-[2-[[1 - (hydroxy-methyl)-2-phenylethyl]amino]-1-(1H-indol-3-ylmethyl)ethyl]carbamate] came in with a Ki of 11500 nM. In the case of `O=C(N[C@H](CN[C@H](CO)Cc1ccccc1)Cc1c[nH]c2ccccc12)OC1C2CC3CC(C2)CC1C3` (stereo partly shown) [Example 2], affinity was put at a Ki of 1120 nM. The value for `CC(CNCC(O)c1ccccc1)(Cc1c[nH]c2ccccc12)NC(=O)OC1C2CC3CC(C2)CC1C3` (stereo not shown) [Example 5, Tricyclo[3.3.1.1^3,7]dec-2-yl [1-[(2-hydroxy-2-phenyl-ethyl)amino]-3-(1H-indol-3-yl)-2-methylprop-2-yl]-carbamate] was 220 nM; that for `C[C@](CN[C@H](CO)Cc1ccccc1)(Cc1c[nH]c2ccccc12)NC(=O)OC1C2CC3CC(C2)CC1C3` (stereo partly drawn) [Example 6, Tricyclo[3.3.1.1^3,7]dec-2-yl[R-(R*,S*)]-1-[[1(hydroxy-methyl)-2-phenylethyl]amino]-3-(1H-indol-3-yl)-2-methylprop-2-ylcarbamate] was 200 nM; that for `CC(=O)N(C[C@@](C)(Cc1c[nH]c2ccccc12)NC(=O)OC1C2CC3CC(C2)CC1C3)[C@H](CO)Cc1ccccc1` (stereo partly drawn) [Example 8, Tricyclo[3.3.1.1^3,7]dec-2-yl[R-(R*,S*)]-[acetyl[1-(hydroxymethyl)-2-phenylethyl]amino]-2-(1H-indol-3-ylmethyl)prop-2-ylcarbamate] was 318 nM.

Compound `C[C@](Cc1c[nH]c2ccccc12)(NC(=O)OC1C2CC3CC(C2)CC1C3)C(=S)NCCc1ccccc1` (stereo partly shown) [Example 9] returned a Ki of 808 nM. In turn, `C[C@](CC(=O)OCc1ccccc1)(Cc1c[nH]c2ccccc12)NC(=O)OC1C2CC3CC(C2)CC1C3` (stereo partly shown) [Example 17] registered an inhibition constant (Ki) of 17 nM.

In turn, `C[C@](CNC(=O)CCCc1ccccc1)(Cc1c[nH]c2ccccc12)NC(=O)OC1C2CC3CC(C2)CC1C3` (stereo partly drawn) [Example 19, Carbamic acid, [1-(1H-indol-3-ylmethyl)-1-methyl-2-[(1-oxo-4-phenylbutyl)amino]ethyl]-, tricyclo-[3.3.1.1^3,7]dec-2-yl ester (R)-] gave a Ki of 353 nM. The compound `C[C@](CNC(=O)c1ccccc1)(Cc1c[nH]c2ccccc12)NC(=O)OC1C2CC3CC(C2)CC1C3` (stereo partly drawn) [Example 20, Carbamic acid, [2-(benzoylamino)-1-(1H-indol-3-ylmethyl)-1-methylethyl]-, tricyclo[3.3.1.1^3,7]dec-2-yl ester, (R)-] registered a Ki of 493 nM. As for `C[C@](CNC(=O)CCc1ccccc1)(Cc1c[nH]c2ccccc12)NC(=O)OC1C2CC3CC(C2)CC1C3` (stereo partly shown) [Example 21], the Ki is above 100 nM.

Turning to `C[C@](CNC(=O)Cc1ccccc1)(Cc1c[nH]c2ccccc12)NC(=O)OC1C2CC3CC(C2)CC1C3` (stereo partly drawn) [Example 22, Carbamic acid, [1-(1H-indol-3-ylmethyl)-1-methyl-2-[(2-phenylacetyl)amino]ethyl]-, tricyclo[3.3.1.1^3,7]-dec-2-yl ester. (R)-], the Ki was determined as 704 nM. `C[C@](Cc1c[nH]c2ccccc12)(NC(=O)OC1C2CC3CC(C2)CC1C3)C(=O)NCCC(=O)N[C@H](CO)Cc1ccccc1` (stereo partly drawn) [Example 23, Carbamic acid, [2-[[3-[[1-(hydroxymethyl)-2-phenyl-ethyl]amino]-3-oxopropyl]amino]-1-(1H-indol-3-ylmethyl)-1-methyl-2-oxoethyl]-, tricyclo-[3.3.1.1^3,7]dec-2-vl ester. [R-(R*.S*)]-]: the Ki worked out at 800 nM. To `C[C@](Cc1c[nH]c2ccccc12)(NC(=O)OC1C2CC3CC(C2)CC1C3)C(=O)NCCC(=O)N[C@H](Cc1ccccc1)C(N)=O` (stereo partly drawn) [Example 25, D-Phenylalanamide, α-methyl-N-[(tricyclo[3.3.1.1^3,7]-dec-2-yloxv)carbonyl]-D-tryotophyl-β-alanyl-] belongs 550 nM. In the case of `C[C@](Cc1c[nH]c2ccccc12)(NC(=O)OC1C2CC3CC(C2)CC1C3)C(=O)NCCC(=O)N[C@@H](Cc1ccccc1)C(N)=O` (stereo partly drawn) [Example 26, L-Phenylalaninamide, α-methyl-N-[(tricyclo [3.3.1.1^3,7]-dec-2-yloxy)carbonyl]-D-tryptophvl-β-alanyl-], the Ki was 92 nM.

Turning to `C[C@@](Cc1c[nH]c2ccccc12)(NC(=O)OC1C2CC3CC(C2)CC1C3)C(=O)NCCC(=O)N[C@@H](Cc1ccccc1)C(N)=O` (stereo partly drawn) [Example 27, L-Phenylalaninamide α-methyl-N-[(tricyclo[3.3.1.1^3,7]-dec-2-yloxy)carbonyl]-L-tryptophy-β-alanyl-], the Ki is 910 nM. In the case of `C[C@@](Cc1c[nH]c2ccccc12)(NC(=O)OC1C2CC3CC(C2)CC1C3)C(=O)NCCC(=O)N[C@H](Cc1ccccc1)C(N)=O` (stereo partly shown) [Example 28], the affinity corresponds to a Ki of 1400 nM. On to `COC(=O)[C@@H](Cc1ccccc1)NC(=O)CCNC(=O)[C@@](C)(Cc1c[nH]c2ccccc12)NC(=O)OC1C2CC3CC(C2)CC1C3` (stereo partly drawn) [Example 29, 12-Oxa-2,5,9-triazatridecanoic acid, 3-(1H-indol-3-ylmethyl)-3-methyl-4.8.11-trioxo-10-(phenvlmethyl)-, tricyclo[3.3.1.1^3,7]dec-2-vl ester, [R-(R*,R*)]-], for which affinity was put at a Ki of 240 nM. For the compound `C[C@](Cc1c[nH]c2ccccc12)(NC(=O)OC1C2CC3CC(C2)CC1C3)C(=O)NCCC(=O)N[C@@H](Cc1ccccc1)C(=O)OCc1ccccc1` (stereo partly drawn) [Example 30, L-Phenylalanine,N-[N-[α-methyl-N-[(tricyclo[3.3.1.1^3,7]dec-2-yloxy)carbonyl]-d-tryotoohyl]-β-alanyl]-phenylmethyl ester], the Ki is above 10000 nM. The value for `C[C@@](Cc1c[nH]c2ccccc12)(NC(=O)OC1C2CC3CC(C2)CC1C3)C(=O)NCCC(=O)N[C@@H](Cc1ccccc1)C(=O)OCc1ccccc1` (stereo partly drawn) [Example 31, Propanoic acid, 2-[[3-[[3-(1H-indol-3-yl)-2-methyl-1-oxo-2-[[(tricyclo[3.3.1.1^3,7]dec-2-yloxy)carbonyl]amino]propyl]amino]-1-oxopropyl]-amino]-3-phenyl-, phenylmethyl ester, [S-(R*,R*)]-] was 1200 nM. Compound `C[C@](Cc1c[nH]c2ccccc12)(NC(=O)OC1C2CC3CC(C2)CC1C3)C(=O)NCCC(=O)N[C@H](Cc1ccccc1)C(=O)O` (stereo partly drawn) [Example 32, D-Phenylalanine, N-[N-[α-methyl-N-[(tricyclo-[3.3.1.1^3,7]dec-2-yloxy)carbonyl]-D-tryptophyl]-β-alanyl]-] gave a Ki of 103 nM.

The values are drawn from patent US5846942A, “Cholecystokinin antagonists, their preparation and therapeutic use” (Warner-Lambert Company, priority 1996, dated 1998).
